Experimental data taken from EP2698384A1, “Detection of synthetic cannabinoids” (priority 2012, dated 2014).
Like-named read-outs stand apart in the source and are kept apart here.

Assays:
Type in all cases: binding, sheep
Conditions in all cases: Cross-reactants at 100 ng/ml, 1000ng/ml, single level of cross reactants
[1] = test system: Antibody to Immunogen III
Protocol: (§1) The wells of an enhanced binding 96 well polystyrene microtiter plate were coated with IgG fraction of antiserum raised to Immunogen VI, diluted in 10mM Tris, pH8.5 (125µl/well). The appropriate antibody coating dilution was determined using standard ELISA checkerboard techniques. The plate was incubated overnight at 4°C, washed 4 times over 10 minutes with Tris buffered saline containing Tween 20 (TBST) and tapped dry. Standard solutions of RCS-4 were prepared in TBST at 0, 0.3125, 0.625, 1.25, 2.5, 5, 10 and 20ng/ml, and 50µl of each was added to the appropriate wells (see figure 1). 75µl of conjugate (appropriate hapten-HRP) diluted in Tris buffer (pH 7.2) containing EDTA, D-mannitol, sucrose, thimerosal and BSA, was added to each of the wells. The appropriate dilution of conjugate was also determined using standard ELISA checkerboard techniques. The plate was incubated at 25°C for 1 hour. Excess unbound conjugate was removed by washing 6 times over a 10 minute period with TBST. 125µl oftetramethylbenzidine (TMB) substrate solution was added to each well of the plate that was then incubated for 20 minutes in the dark at room temperature. The reaction was terminated by addition of 125µl 0.2M H2SO4 to each well. The absorbance was then measured at 450nm using a microtiter plate reader. The data are inputted to a computer program called 'KC Junior'. It is a 4 parameter fit curve and allow the calculatation of concentrations between the standard runs. This program is used to calculate the IC50s by dividing the 0ng/ml OD value by 2 and obtaining the concentration value from the curve for this OD.
In a similar manner to that described above, the wells of a 96-well microtiter plate were coated with the IgG fraction of the antiserum raised to Immunogens I, II or III. Standard solutions (JWH-250 for Immunogen III) were applied at 0, 0.625, 1.25, 2.5, 5, 10, 20 and 40ng/ml and conjugate was employed as detection reagent.
(§2) The data set our in Tables 3 and 4 are generated using antibodies raised against the indicated Immunogens in a competitive binding assay with the indicated tracers, using the indicated standards: Table 2
(§3) In order to determine the specificity of the competitive ELISAs, standard solutions of a range of structurally similar synthetic cannabinoids and their metabolites were prepared in TBST. Using the calibration curves generated and employing a single level of cross reactants, these were used to determine the cross-reactivity of each immunoassay with these substances. Table 4: Cross reactivity of the competitive ELISAs for synthetic cannabinoids and their metabolites

[2] = test system: Antibody to Immunogen V
Protocol: as §1
In a similar manner to that described above, the wells of a 96-well microtiter plate were coated with the IgG fraction of the antiserum raised to Immunogens IV, V, VII or VIII. Standard solutions (RCS-8 for Immunogen V) were prepared in TBST at 0, 1.25, 2.5, 5, 10, 20, 40 and 80ng/ml and conjugate was employed as detection reagent.
as §2, §3

[3] = test system: Antibody to Immunogen VI
Protocol: as §1, §2, §3

[4] = listed as JWH-164 (JWH-081 7-methoxynaphthyl isomer)

Structure (SMILES)	%B/B0 [1] [%]	%B/B0 [2] [%]	%B/B0 [3] [%]	%B/B0 [1, 4] [%]	%B/B0 [2, 4] [%]	%B/B0 [3, 4] [%]
CCCCCn1cc(C(=O)c2ccc3ccccc3c2)c2ccccc21 [JWH 018 2'-naphthyl isomer]	76.35	88.32	44.48	–	–	–
CC(C)CCn1cc(C(=O)c2cccc3ccccc23)c2ccccc21 [JWH 018 N-(3-methylbutyl) isomer (JWH-073 3-methylbutyl homologue)]	82.58	63.42	66.63	–	–	–
CCCCCn1cc(C(=O)C23CC4CC(CC(C4)C2)C3)c2ccccc21 [JWH 018 adamantyl analog]	84.69	86.65	93.91	–	–	–
CCCCn1cc(C(=O)c2c(C)ccc3ccccc23)c2ccccc21 [JWH 073 2-methylnaphthyl analog]	86.14	77.45	86.98	–	–	–
CCCCCn1cc(C(=O)c2c(C)ccc3ccccc23)c2ccccc21 [JWH 122 2-methylnaphthyl isomer]	80.25	83.38	90.59	–	–	–
CCCCCn1cc(C(=O)c2cccc3cc(C)ccc23)c2ccccc21 [JWH 122 6-methylnaphthyl isomer]	73.75	77.08	84.77	–	–	–
CCCCCn1cc(C(=O)c2cccc3ccc(C)cc23)c2ccccc21 [JWH 122 7-methylnaphthyl isomer]	71.72	78.80	86.92	–	–	–
CCCCCn1cc(C(=O)Cc2cccc(Cl)c2)c2ccccc21 [JWH 203 3-chloro isomer (JWH-237)]	22.69	27.22	72.53	–	–	–
CCCCCn1cc(C(=O)Cc2ccccc2OC)c2cc(O)ccc21 [JWH 250 5-hydroxyindole metabolite]	65.83	37.39	91.28	–	–	–
COc1ccccc1CC(=O)c1cn(CCCCCC(=O)O)c2ccccc12 [JWH 250 N-(5-carboxypentyl) metabo lite]	89.61	8.60	85.31	–	–	–
COc1ccccc1CC(=O)c1cn(CCCCCO)c2ccccc12 [JWH 250 N-(5-hydroxypentyl) metabo lite]	48.72	6.88	78.58	–	–	–
CCCCCn1cc(C(=O)Cc2cccc(C)c2)c2ccccc21 [JWH 251 3-methylphenyl isomer]	21.39	26.65	73.53	–	–	–
CCCCCn1c(C)c(C(=O)c2cccc3ccccc23)c2ccccc21 [JWH-007]	81.87	75.22	81.74	–	–	–
CCCCCC(C)n1c(C)c(C(=O)c2cccc3ccccc23)c2ccccc21 (stereo not drawn) [JWH-011]	93.19	83.73	88.22	–	–	–
CCCn1c(C)c(C(=O)c2cccc3ccccc23)c2ccccc21 [JWH-015]	93.97	73.42	77.06	–	–	–
CCCCn1c(C)c(C(=O)c2cccc3ccccc23)c2ccccc21 [JWH-016]	82.93	69.38	80.10	–	–	–
CCCCCn1cc(C(=O)c2cccc3ccccc23)c2ccc(OC)cc21 [JWH-018 6-methoxyindole analogue]	85.67	73.60	86.92	–	–	–
CC(C)(C)Cn1cc(C(=O)c2cccc3ccccc23)c2ccccc21 [JWH-018 N-(2,2-dimethylpropyl) isomer]	95.58	67.14	78.92	–	–	–
O=C(c1cccc2ccccc12)c1cn(CCCCCO)c2ccccc12 [JWH-018 N-(5-hydroxypentyl) metabo lite]	89.74	70.25	61.67	–	–	–

Structure (SMILES)	%B/B0 [1] [%]	%B/B0 [2] [%]	%B/B0 [3] [%]	%B/B0 [1, 4] [%]	%B/B0 [2, 4] [%]	%B/B0 [3, 4] [%]
O=C(O)CCCCn1cc(C(=O)c2cccc3ccccc23)c2ccccc21 [JWH-018 N-pentanoic acid metabolite]	100.98	72.42	65.90	–	–	–
CCCCCn1cc(C(=O)c2cccc3ccccc23)c2ccccc21 [JWH-018]	78.39	78.01	82.47	–	–	–
CCCCCCn1cc(C(=O)c2cccc3ccccc23)c2ccccc21 [JWH-019]	88.06	70.25	78.02	–	–	–
CCCCCCCn1cc(C(=O)c2cccc3ccccc23)c2ccccc21 [JWH-020]	93.85	71.43	82.41	–	–	–
C=CCCCn1cc(C(=O)c2cccc3ccccc23)c2ccccc21 [JWH-022]	76.82	61.86	75.42	–	–	–
CCCCCn1ccc(C(=O)c2cccc3ccccc23)c1 [JWH-030]	95.34	77.27	86.70	–	–	–
CCCCn1cc(C(=O)c2ccc(C)c3ccccc23)c2ccccc21 [JWH-073 4-methylnaphthyl analogue]	78.03	65.84	70.97	–	–	–
CC(O)CCn1cc(C(=O)c2cccc3ccccc23)c2ccccc21 (stereo not drawn) [JWH-073 N-(3-hydroxybutyl) metabolite]	94.05	63.79	72.55	–	–	–
O=C(c1cccc2ccccc12)c1cn(CCCCO)c2ccccc12 [JWH-073 N-(4-hydroxybutyl) metabolite]	87.63	63.73	70.57	–	–	–
O=C(O)CCCn1cc(C(=O)c2cccc3ccccc23)c2ccccc21 [JWH-073 N-butanoic acid metabolite]	97.45	70.75	76.27	–	–	–
CCCCn1cc(C(=O)c2cccc3ccccc23)c2ccccc21 [JWH-073]	81.25	66.65	74.80	–	–	–
CCCCCn1cc(C(=O)c2c(OC)ccc3ccccc23)c2ccccc21 [JWH-081 2-methoxynaphthyl isomer or (JWH-267)]	85.59	70.37	86.87	–	–	–
CCCCCn1cc(C(=O)c2cccc3c(OC)cccc23)c2ccccc21 [JWH-081 5-methoxynaphthyl isomer]	76.35	90.40	77.74	–	–	–
CCCCCn1cc(C(=O)c2cccc3ccc(OC)cc23)c2ccccc21 [JWH-081 7-methoxynaphthyl isomer (JWH-164)]	75.18	87.25	92.27	72.63	82.81	89.29
COc1ccc(C(=O)c2cn(CCCCCO)c3ccccc23)c2ccccc12 [JWH-081 N-(5-hydroxypentyl) metabolite]	76.44	72.78	69.47	–	–	–
CCCCCn1c(C)c(C(=O)c2ccc(OC)c3ccccc23)c2ccccc21 [JWH-098]	74.71	81.09	78.96	–	–	–
Cc1ccc(C(=O)c2cn(CCCCCO)c3ccccc23)c2ccccc12 [JWH-122 N-(5-hydroxypentyl) metabo lite]	81.72	68.77	71.84	–	–	–
CCCCCn1cc(C(=O)c2ccc(C)c3ccccc23)c2ccccc21 [JWH-122]	69.90	69.63	75.29	–	–	–
